Assay results: US10787462B2, “Heterocyclic compound” (TAKEDA PHARMACEUTICAL COMPANY LIMITED, priority 2015, dated 2020)

target: T1, human RIPK1 (1-375) (Homo sapiens, UniProt Q13546); experiment: Human RIPK1 enzyme inhibitory effect (ADP-Glo Kinase Assay); assay type: biochemical; details: 10 μM test compound; well without enzyme = 100% inhibition; 10 µM
T1 construct: human RIPK1 (1-375) gene; GST; made in house; host or cells: Sf-9 insect cells
T1 sequence (Q13546 1-375): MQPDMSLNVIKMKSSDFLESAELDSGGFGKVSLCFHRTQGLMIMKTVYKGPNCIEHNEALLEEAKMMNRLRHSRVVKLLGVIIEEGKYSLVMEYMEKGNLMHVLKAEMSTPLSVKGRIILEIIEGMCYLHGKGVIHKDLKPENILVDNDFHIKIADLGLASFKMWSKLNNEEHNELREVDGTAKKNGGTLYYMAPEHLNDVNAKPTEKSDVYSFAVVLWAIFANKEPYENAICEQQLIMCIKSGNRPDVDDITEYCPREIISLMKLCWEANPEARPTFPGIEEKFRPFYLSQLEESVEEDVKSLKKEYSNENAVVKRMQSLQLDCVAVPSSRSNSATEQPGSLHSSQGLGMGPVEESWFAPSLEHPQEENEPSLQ
Description: Experimental Example 1: Human RIPK1 Enzyme Inhibitory Effect
Enzyme was prepared by transducing human RIPK1 (1-375) gene to Sf-9 insect cells, and purifying using GST affinity column, and enzyme activity evaluation was performed using the enzyme. The enzyme was used after preservation at −70° C. The RIPK1 enzyme inhibitory activity of the test compound was measured using ADP-Glo™ Kinase Assay (Promega) according the following experiment methods. The test compound diluted with assay buffer (25 mM HEPES (pH 7.5), 10 mM MgCl2, 0.01% Tween-20, 2 mM DTT) was added to 384 well plate by each 2 μL. Next, RIPK1 enzyme solution diluted with the assay buffer was added thereto by each 2 μL, and the mixture was incubated at room temperature for 20 min. After the incubation, 0.6 mM ATP solution was added thereto by each 2 μL to initiate an enzyme reaction. The mixture was incubated at room temperature for 120 min, and ADP-Glo solution prepared according to Promega protocol was added to the 384 well plate by each 3 μL, and the reaction was performed at room temperature for 40 min. Then, Kinase-Detection solution was added to the 384 well plate by each 6 μL, and the reaction was performed at room temperature for 40 min. After the reaction, the luminescence intensity was measured by plate reader Envision (PerkinElmer).

Structure (SMILES)	human RIPK1 enzyme inhibitory effect at 10 μM (% inhibition) [%]
CN1C(=O)C(N2CCc3c(nn(Cc4ccccc4F)c3Cl)C2=O)CCc2cnccc21 (centres unmarked) [Example 96, 3-(3-chloro-2-(2-fluorobenzyl)-7-oxo-2,4,5,7-tetrahydro-6H-pyrazolo[3,4-c]pyridin-6-yl)-1-methyl-1,3,4,5-tetrahydro-2H-pyrido[4,3-b]azepin-2-one]	96
CN1C(=O)C(N2CCc3c(nn(Cc4ccccc4F)c3Cl)C2=O)CCc2nn(C)cc21 (centres unmarked) [Example 121, 6-(3-chloro-2-(2-fluorobenzyl)-7-oxo-2,4,5,7-tetrahydro-6H-pyrazolo[3,4-c]pyridin-6-yl)-2,4-dimethyl-2,6,7,8-tetrahydropyrazolo[4,3-b]azepin-5(4H)-one]	86

Results, then the compound that gave them:

human RIPK1 enzyme inhibitory effect at 10 μM (% inhibition) [%]	Structure (SMILES)
98	CN1C(=O)C(N2CCc3c(nn(Cc4ccccc4F)c3Cl)C2=O)CCc2ccncc21 (centres unmarked) [Example 97, 3-(3-chloro-2-(2-fluorobenzyl)-7-oxo-2,4,5,7-tetrahydro-6H-pyrazolo[3,4-c]pyridin-6-yl)-1-methyl-1,3,4,5-tetrahydro-2H-pyrido[3,4-b]azepin-2-one]
73	CN1C(=O)C(N2CCc3c(nn(Cc4ccccc4)c3Cl)C2=O)CCc2ncccc21 (stereo not drawn) [Example 67, 7-(2-benzyl-3-chloro-7-oxo-2,4,5,7-tetrahydro-6H-pyrazolo[3,4-c]pyridin-6-yl)-5-methyl-5,7,8,9-tetrahydro-6H-pyrido[3,2-b]azepin-6-one (optical isomer)]
101	CN1C(=O)C(N2CCc3c(nn(Cc4ccccc4)c3Cl)C2=O)CCc2cn(C)nc21 (centres unmarked) [Example 114, 6-(2-benzyl-3-chloro-7-oxo-2,4,5,7-tetrahydro-6H-pyrazolo[3,4-c]pyridin-6-yl)-2,8-dimethyl-2,5,6,8-tetrahydropyrazolo[3,4-b]azepin-7(4H)-one]
89	CN1C(=O)C(N2CCc3c(nn(Cc4ccccc4F)c3Cl)C2=O)CCc2c1cnn2C (centres unmarked) [Example 132, 6-(3-chloro-2-(2-fluorobenzyl)-7-oxo-2,4,5,7-tetrahydro-6H-pyrazolo[3,4-c]pyridin-6-yl)-1,4-dimethyl-4,6,7,8-tetrahydropyrazolo[4,3-b]azepin-5(1H)-one]

same assay, conditions: read-out: human RIPK1 enzyme inhibitory effect at 10 μM (% inhibition)

Structure (SMILES)	inhibition at 10 µM [%]
CN1C(=O)[C@@H](N2CCc3c(nn(Cc4ccccc4)c3C(N)=O)C2=O)COc2ccccc21 [Example 50, 2-benzyl-6-((3S)-5-methyl-4-oxo-2,3,4,5-tetrahydro-1,5-benzoxazepin-3-yl)-7-oxo-4,5,6,7-tetrahydro-2H-pyrazolo[3,4-c]pyridine-3-carboxamide]	99

same assay, conditions: read-out: human RIPK1 enzyme inhibitory effect at 10 μM (% inhibition), 10 μM test compound; well without enzyme = 100% inhibition

Structure (SMILES)	inhibition at 10 µM [%]
CN1C(=O)[C@@H](N2CCc3cn(Cc4cccc(F)c4)nc3C2=O)CSc2ccccc21 [Example 156, (3R)-3-(2-(3-fluorobenzyl)-7-oxo-2,4,5,7-tetrahydro-6H-pyrazolo[3,4-c]pyridin-6-yl)-5-methyl-2,3-dihydro-1,5-benzothiazepin-4(5H)-one]	97
COc1cccc(Cn2cc3c(n2)C(=O)N([C@H]2COc4ccccc4N(C)C2=O)CC3)c1 [Example 155, (3S)-3-(2-(3-methoxybenzyl)-7-oxo-2,4,5,7-tetrahydro-6H-pyrazolo[3,4-c]pyridin-6-yl)-5-methyl-2,3-dihydro-1,5-benzoxazepin-4(5H)-one]	97
CN1C(=O)[C@@H](N2CCc3c(nn(Cc4ccccc4)c3OC(F)F)C2=O)COc2cc(Br)ccc21 [Example 123, (3S)-3-(2-benzyl-3-(difluoromethoxy)-7-oxo-2,4,5,7-tetrahydro-6H-pyrazolo[3,4-c]pyridin-6-yl)-8-bromo-5-methyl-2,3-dihydro-1,5-benzoxazepin-4(5H)-one]	98
CN1C(=O)[C@@H](N2CCc3cn(Cc4cccc(S(C)(=O)=O)c4)nc3C2=O)COc2ccccc21 [Example 166, (3S)-5-methyl-3-(2-(3-(methylsulfonyl)benzyl)-7-oxo-2,4,5,7-tetrahydro-6H-pyrazolo[3,4-c]pyridin-6-yl)-2,3-dihydro-1,5-benzoxazepin-4(5H)-one]	88
CN1C(=O)[C@@H](N2CCc3cn(Cc4cc(C#N)ccc4F)nc3C2=O)COc2ccccc21 [Example 172, 4-fluoro-3-((6-((3S)-5-methyl-4-oxo-2,3,4,5-tetrahydro-1,5-benzoxazepin-3-yl)-7-oxo-4,5,6,7-tetrahydro-2H-pyrazolo[3,4-c]pyridin-2-yl)methyl)benzonitrile]	99
CN1C(=O)C(N2CCc3c(nn(Cc4ccccc4F)c3Cl)C2=O)CCc2nn(C)cc21 (centres unmarked) [Example 119, 6-(3-chloro-2-(2-fluorobenzyl)-7-oxo-2,4,5,7-tetrahydro-6H-pyrazolo[3,4-c]pyridin-6-yl)-2,4-dimethyl-2,6,7,8-tetrahydropyrazolo[4,3-b]azepin-5(4H)-one]	97
CN1C(=O)[C@@H](N2CCn3nc(Cc4ccccc4)nc3C2=O)COc2ccccc21 [Example 8, (3S)-3-(2-benzyl-8-oxo-5,6-dihydro[1,2,4]triazolo[1,5-a]pyrazin-7(8H)-yl)-5-methyl-2,3-dihydro-1,5-benzoxazepin-4(5H)-one]	98
CCOC(=O)c1c2c(nn1Cc1ccccc1)C(=O)N([C@H]1COc3ccccc3N(C)C1=O)CC2 [Example 51, ethyl 2-benzyl-6-((3S)-5-methyl-4-oxo-2,3,4,5-tetrahydro-1,5-benzoxazepin-3-yl)-7-oxo-4,5,6,7-tetrahydro-2H-pyrazolo[3,4-c]pyridine-3-carboxylate]	99
CN1C(=O)[C@@H](N2CCc3c(nn(Cc4ccccc4)c3Cl)C2=O)COc2cc(N3CCOCC3)ccc21 [Example 142, (3S)-3-(2-benzyl-3-chloro-7-oxo-2,4,5,7-tetrahydro-6H-pyrazolo[3,4-c]pyridin-6-yl)-5-methyl-8-(morpholin-4-yl)-2,3-dihydro-1,5-benzoxazepin-4(5H)-one]	100

Next, values leading:

inhibition at 10 µM [%]	Structure (SMILES)
98	CN1C(=O)[C@@H](N2CCc3c(nn(Cc4ccccc4)c3CO)C2=O)COc2ccccc21 [Example 52, (3S)-3-(2-benzyl-3-(hydroxymethyl)-7-oxo-2,4,5,7-tetrahydro-6H-pyrazolo[3,4-c]pyridin-6-yl)-5-methyl-2,3-dihydro-1,5-benzoxazepin-4(5H)-one]
101	CNC(=O)c1ccc2c(c1)OC[C@H](N1CCc3cn(Cc4ccccc4F)nc3C1=O)C(=O)N2C [Example 117, (3S)-3-(2-(2-fluorobenzyl)-7-oxo-2,4,5,7-tetrahydro-6H-pyrazolo[3,4-c]pyridin-6-yl)-N,5-dimethyl-4-oxo-2,3,4,5-tetrahydro-1,5-benzoxazepine-8-carboxamide]
99	CN1C(=O)[C@@H](N2CCc3cn(Cc4ccccc4)nc3C2=O)CS(=O)(=O)c2ccccc21 [Example 69, (3R)-3-(2-benzyl-7-oxo-2,4,5,7-tetrahydro-6H-pyrazolo[3,4-c]pyridin-6-yl)-5-methyl-2,3-dihydro-1,5-benzthiazepin-4(5H)-one 1,1-dioxide]
72	O=C1Nc2ccccc2CCC1N1CCn2nc(Cc3ccccc3)cc2C1=O (centres unmarked) [Example 18, 3-(2-benzyl-4-oxo-6,7-dihydropyrazolo[1,5-a]pyrazin-5(4H)-yl)-1,3,4,5-tetrahydro-2H-1-benzazepin-2-one]
